Some test systems named below: M14; HT-29; RXF 393; IGROV-1; SF-295; KM12; BT-549; SNB-19; HCT-15; NCI-H226; Malme-3M; HOP-92; ACHN; SF-268; EKVX; MCF7; OVCAR-5; OVCAR-4; UO-31; UACC-62.
Common to all, as to assay: growth of human tumour cells (NCI), 48 h

These results are taken from ChEMBL document CHEMBL1201862, “PubChem BioAssay data set” (2004).

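These data come from cells grown in 96-well plates and exposed to compound for 48 hours at five concentrations. At the GI50, growth is halved.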 Active and inactive are the calls of the source. Rule as the data show it: active = GI50 up to about 1.1 µM and inactive = higher.

For the molecule `CC(C)(C)c1cc(/C=C(\C#N)C2=NCCO2)cc(C(C)(C)C)c1O`, the GI50 in the test with M14 is 5020 nM (inactive); with HT-29 it was 3200 nM (inactive); in the test with RXF 393, 3260 nM (inactive); with IGROV-1 it was 6580 nM (inactive); in the test on SF-295, 2860 nM (inactive); with KM12, 3570 nM (inactive). The GI50 was 3430 nM (inactive) in the test with BT-549; 4430 nM (inactive) with SNB-19; 3290 nM with HCT-15; 5400 nM (inactive) in the test on NCI-H226; 7260 nM (inactive) in the test on Malme-3M; 4060 nM (inactive) in the test with HOP-92. In addition, the GI50 in the test on ACHN is 3560 nM (inactive); in the test on SF-268 it was 4610 nM (inactive); with EKVX, 4990 nM (inactive); with MCF7, 3400 nM (inactive); with OVCAR-5 it was 2890 nM (inactive); with OVCAR-4, 3130 nM (inactive). Moreover, the GI50 in the test on UO-31 was 2730 nM (inactive); with UACC-62, 4310 nM (inactive).
On to `COC(=O)c1ccc(O)c2nc3c(C=O)c(O)cc(O)c3nc12` [LOMOFUNGIN], for which the GI50 in the test with M14 is 592 nM (active); in the test with HT-29, 458 nM (active); in the test with RXF 393, 7180 nM (inactive); in the test on IGROV-1, 206 nM (active); with SF-295 it was 44.1 nM (active); with KM12, 1300 nM (inactive). In addition, the GI50 with BT-549 was 614 nM (active); in the test with SNB-19 it was 1900 nM (inactive); in the test with HCT-15 it was 220 nM; in the test with NCI-H226, 542 nM (active); in the test on Malme-3M, 2070 nM (inactive); in the test on HOP-92, 1200 nM (inactive). Moreover, the GI50 with ACHN is 320 nM (active); with SF-268 it was 428 nM (active); in the test with EKVX it was 1360 nM (inactive); with MCF7, 369 nM (active); in the test with OVCAR-5 it was 822 nM (active); in the test on OVCAR-4, 2760 nM (inactive). In addition, the GI50 in the test on UO-31 was 225 nM (active); in the test on UACC-62, 1270 nM (inactive).
